{
  "source": "patent US6355799B1",
  "about": "“Substituted benzene compounds, process for their preparation, and herbicidal and defoliant compositions containing them” (ISK Americas Incorporated, priority 1997, dated 2002)",
  "type_in_all_cases": "in vivo",
  "key": {"[1]": {"system": "barnyardgrass (Echinochloa crus-galli, ECHCG)", "test": "Post-emerge test, greenhouse herbicide activity screening", "conditions": "post-emerge; for Post-emerge Herbicidal Activity ECHCG: phytotoxicity rating 0-100 at 14 days after application; for Post-emerge Herbicidal Activity ECHCG (phytotoxicity rating): 14 days after application, rating scale 0-100", "procedure,_shortened": "(§1)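 Compounds in acetone were track-sprayed at 187 l/ha, 15–1000 g ai/ha, onto sandy loam pots. Pre-emerge seeds were sown one day before spraying, with surface watering afterwards. Post-emerge plants were at the 2–3 leaf stage and sprayed with 0.25% v/v non-ionic surfactant. Injury was rated 0–100 at 14 days.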"}, "[2]": {"system": "large crabgrass (Digitaria sanguinalis, DIGSA)", "test": "Post-emerge test, greenhouse herbicide activity screening", "conditions": "post-emerge; for Post-emerge Herbicidal Activity DIGSA: phytotoxicity rating 0-100 at 14 days after application; for Post-emerge Herbicidal Activity DIGSA (phytotoxicity rating): 14 days after application, rating scale 0-100", "procedure,_shortened": "as §1"}, "[3]": {"system": "green foxtail (Setaria viridis, SETVI)", "test": "Post-emerge test, greenhouse herbicide activity screening", "conditions": "post-emerge; for Post-emerge Herbicidal Activity SETVI: phytotoxicity rating 0-100 at 14 days after application; for Post-emerge Herbicidal Activity SETVI (phytotoxicity rating): 14 days after application, rating scale 0-100", "procedure,_shortened": "as §1"}, "[4]": {"system": "velvetleaf (Abutilon theophrasti, ABUTH)", "test": "Post-emerge test, greenhouse herbicide activity screening", "conditions": "post-emerge; for Post-emerge Herbicidal Activity ABUTH: phytotoxicity rating 0-100 at 14 days after application; for Post-emerge Herbicidal Activity ABUTH (phytotoxicity rating): 14 days after application, rating scale 0-100", "procedure,_shortened": "as §1"}, "[5]": {"system": "lambsquarters (Chenopodium album, CHEAL)", "test": "Post-emerge test, greenhouse herbicide activity screening", "conditions": "post-emerge; for Post-emerge Herbicidal Activity CHEAL: phytotoxicity rating 0-100 at 14 days after application; for Post-emerge Herbicidal Activity CHEAL (phytotoxicity rating): 14 days after application, rating scale 0-100", "procedure,_shortened": "as §1"}, "[6]": {"system": "sicklepod (Cassia obtusifolia, CASOB)", "test": "Post-emerge test, greenhouse herbicide activity screening", "conditions": "post-emerge; for Post-emerge Herbicidal Activity CASOB: phytotoxicity rating 0-100 at 14 days after application; for Post-emerge Herbicidal Activity CASOB (phytotoxicity rating): 14 days after application, rating scale 0-100", "procedure,_shortened": "as §1"}, "[7]": {"system": "redroot pigweed (Amaranthus retroflexus, AMARE)", "test": "Post-emerge test, greenhouse herbicide activity screening", "conditions": "post-emerge; for Post-emerge Herbicidal Activity AMARE: phytotoxicity rating 0-100 at 14 days after application; for Post-emerge Herbicidal Activity AMARE (phytotoxicity rating): 14 days after application", "procedure,_shortened": "as §1"}, "[8]": {"system": "ivyleaf morningglory (Ipomoea hederacea, IPOHE)", "test": "Post-emerge test, greenhouse herbicide activity screening", "conditions": "post-emerge; for Post-emerge Herbicidal Activity IPOHE: phytotoxicity rating 0-100 at 14 days after application; for Post-emerge Herbicidal Activity IPOHE (phytotoxicity rating): 14 days after application, rating scale 0-100", "procedure,_shortened": "as §1"}, "[9]": {"system": "johnsongrass (Sorghum halepense, SORHA)", "test": "Post-emerge test, greenhouse herbicide activity screening", "conditions": "post-emerge; for Post-emerge Herbicidal Activity SORHA: phytotoxicity rating 0-100 at 14 days after application; for Post-emerge Herbicidal Activity SORHA (phytotoxicity rating): 14 days after application, rating scale 0-100", "procedure,_shortened": "as §1"}, "[10]": {"system": "upland rice (Oryza sp., var. Tebonnet, RICE)", "test": "Post-emerge test, crop safety", "conditions": "post-emerge; for Post-emerge Herbicidal Activity RICE: crop damage rating 0-100 at 14 days after application; for Post-emerge Herbicidal Activity RICE (crop damage rating): 14 days after application, rating scale 0-100", "procedure,_shortened": "(§2)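 Visual ratings on a 0-100 scale (0 no damage, 100 all plants dead) were taken at 14 days after treatment. Rates of 15-1000 g ai/ha in acetone, 187 l/ha, were sprayed onto soil one day after planting (pre-emerge) or onto 2-3 leaf plants with 0.25% v/v surfactant (post-emerge).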"}, "[11]": {"system": "field corn (Zea mays L., var. Dekalb 535, CORN)", "test": "Post-emerge test, crop safety", "conditions": "post-emerge; for Post-emerge Herbicidal Activity CORN: crop damage rating 0-100 at 14 days after application; for Post-emerge Herbicidal Activity CORN (crop damage rating): 14 days after application, rating scale 0-100", "procedure,_shortened": "as §2"}},
  "data": [
    {"smiles": "COc1c(Cl)cc(F)c(-n2c(=O)n3n(c2=O)CCCC3)c1NC(=O)c1ccc2ccccc2c1", "note": "[9-15]", "values": [
      {"measurement": "Post-emerge Herbicidal Activity ECHCG", "setting": "[1]; 63 g ai/ha", "value": 0},
      {"measurement": "Post-emerge Herbicidal Activity ECHCG", "setting": "[1]; 250 g ai/ha", "value": 10},
      {"measurement": "Post-emerge Herbicidal Activity DIGSA", "setting": "[2]; 63 g ai/ha", "value": 0},
      {"measurement": "Post-emerge Herbicidal Activity DIGSA", "setting": "[2]; 250 g ai/ha", "value": 20},
      {"measurement": "Post-emerge Herbicidal Activity SETVI", "setting": "[3]; 63 g ai/ha", "value": 10},
      {"measurement": "Post-emerge Herbicidal Activity SETVI", "setting": "[3]; 250 g ai/ha", "value": 35},
      {"measurement": "Post-emerge Herbicidal Activity ABUTH", "setting": "[4]; 63 g ai/ha", "value": 100},
      {"measurement": "Post-emerge Herbicidal Activity ABUTH", "setting": "[4]; 250 g ai/ha", "value": 100},
      {"measurement": "Post-emerge Herbicidal Activity CHEAL", "setting": "[5]; 63 g ai/ha", "value": 100},
      {"measurement": "Post-emerge Herbicidal Activity CHEAL", "setting": "[5]; 250 g ai/ha", "value": 100},
      {"measurement": "Post-emerge Herbicidal Activity CASOB", "setting": "[6]; 63 g ai/ha", "value": 100},
      {"measurement": "Post-emerge Herbicidal Activity CASOB", "setting": "[6]; 250 g ai/ha", "value": 100},
      {"measurement": "Post-emerge Herbicidal Activity AMARE", "setting": "[7]; 63 g ai/ha", "value": 100},
      {"measurement": "Post-emerge Herbicidal Activity AMARE", "setting": "[7]; 250 g ai/ha", "value": 100},
      {"measurement": "Post-emerge Herbicidal Activity IPOHE", "setting": "[8]; 63 g ai/ha", "value": 100},
      {"measurement": "Post-emerge Herbicidal Activity IPOHE", "setting": "[8]; 250 g ai/ha", "value": 100},
      {"measurement": "Post-emerge Herbicidal Activity SORHA", "setting": "[9]; 63 g ai/ha", "value": 0},
      {"measurement": "Post-emerge Herbicidal Activity SORHA", "setting": "[9]; 250 g ai/ha", "value": 10},
      {"measurement": "Post-emerge Herbicidal Activity RICE", "setting": "[10]; 63 g ai/ha", "value": 40},
      {"measurement": "Post-emerge Herbicidal Activity RICE", "setting": "[10]; 250 g ai/ha", "value": 70},
      {"measurement": "Post-emerge Herbicidal Activity CORN", "setting": "[11]; 63 g ai/ha", "value": 5},
      {"measurement": "Post-emerge Herbicidal Activity CORN", "setting": "[11]; 250 g ai/ha", "value": 10}
    ]},
    {"smiles": "Cn1c(C(F)(F)F)cc(=O)n(-c2c(O)cc(Cl)cc2Cl)c1=O", "note": "[16-1]", "values": [
      {"measurement": "Post-emerge Herbicidal Activity ECHCG (phytotoxicity rating)", "setting": "[1]; 63 g ai/ha", "value": 0},
      {"measurement": "Post-emerge Herbicidal Activity ECHCG (phytotoxicity rating)", "setting": "[1]; 250 g ai/ha", "value": 0},
      {"measurement": "Post-emerge Herbicidal Activity DIGSA (phytotoxicity rating)", "setting": "[2]; 63 g ai/ha", "value": 20},
      {"measurement": "Post-emerge Herbicidal Activity DIGSA (phytotoxicity rating)", "setting": "[2]; 250 g ai/ha", "value": 80},
      {"measurement": "Post-emerge Herbicidal Activity SETVI (phytotoxicity rating)", "setting": "[3]; 63 g ai/ha", "value": 0},
      {"measurement": "Post-emerge Herbicidal Activity SETVI (phytotoxicity rating)", "setting": "[3]; 250 g ai/ha", "value": 0},
      {"measurement": "Post-emerge Herbicidal Activity ABUTH (phytotoxicity rating)", "setting": "[4]; 63 g ai/ha", "value": 70},
      {"measurement": "Post-emerge Herbicidal Activity ABUTH (phytotoxicity rating)", "setting": "[4]; 250 g ai/ha", "value": 100},
      {"measurement": "Post-emerge Herbicidal Activity CHEAL (phytotoxicity rating)", "setting": "[5]; 63 g ai/ha", "value": 0},
      {"measurement": "Post-emerge Herbicidal Activity CHEAL (phytotoxicity rating)", "setting": "[5]; 250 g ai/ha", "value": 70},
      {"measurement": "Post-emerge Herbicidal Activity CASOB (phytotoxicity rating)", "setting": "[6]; 63 g ai/ha", "value": 0},
      {"measurement": "Post-emerge Herbicidal Activity CASOB (phytotoxicity rating)", "setting": "[6]; 250 g ai/ha", "value": 0},
      {"measurement": "Post-emerge Herbicidal Activity AMARE (phytotoxicity rating)", "setting": "[7]; 63 g ai/ha, rating scale 0-100 (0 no damage, 100 complete death)", "value": 70},
      {"measurement": "Post-emerge Herbicidal Activity AMARE (phytotoxicity rating)", "setting": "[7]; 250 g ai/ha, rating scale 0-100", "value": 70},
      {"measurement": "Post-emerge Herbicidal Activity IPOHE (phytotoxicity rating)", "setting": "[8]; 63 g ai/ha", "value": 30},
      {"measurement": "Post-emerge Herbicidal Activity IPOHE (phytotoxicity rating)", "setting": "[8]; 250 g ai/ha", "value": 70},
      {"measurement": "Post-emerge Herbicidal Activity SORHA (phytotoxicity rating)", "setting": "[9]; 63 g ai/ha", "value": 20},
      {"measurement": "Post-emerge Herbicidal Activity SORHA (phytotoxicity rating)", "setting": "[9]; 250 g ai/ha", "value": 40},
      {"measurement": "Post-emerge Herbicidal Activity RICE (crop damage rating)", "setting": "[10]; 63 g ai/ha", "value": 0},
      {"measurement": "Post-emerge Herbicidal Activity RICE (crop damage rating)", "setting": "[10]; 250 g ai/ha", "value": 10},
      {"measurement": "Post-emerge Herbicidal Activity CORN (crop damage rating)", "setting": "[11]; 63 g ai/ha", "value": 0},
      {"measurement": "Post-emerge Herbicidal Activity CORN (crop damage rating)", "setting": "[11]; 250 g ai/ha", "value": 0}
    ]}
  ]
}
